In patent US7323596B2, “Antimicrobial agents” (De Novo Pharmaceuticals Ltd., priority 2000, dated 2008):
Converted amounts (≈) assume the structure as drawn.

Key:
E coli PDF (Ni) = E coli PDF (Ni) (Escherichia coli, UniProt P0A6K3); test: inhibition of the PDF E. coli (Ni) enzyme; type: biochemical; conditions: Ni form of E. coli PDF enzyme
Method: Examples 2-5 were prepared in a manner analogous to example 1. Also shown is there inhibition of the PDF E. coli(Ni) enzyme.

Haemophilia influenza = test: MIC by standard agar plate dilution method; type: cell-based
Method: The susceptibilities of strains of bacteria to the compound of Example 1 were determined by a standard agar plate dilution method following recommendations in British Society for Antimicrobial Chemotherapy Working Party. 1991, “A guide to sensitivity testing British Society for Antimicrobial Chemotherapy, London, United Kingdom”. Briefly, Iso-Sensitest agar (pH 7.2: Oxoid, United Kingdom) is employed, supplemented with 5% horse blood (Oxoid) and 20 μg of NAD (Sigma) per ml are added to support growth of fastidious bacteria. The inoculum used is approximately 10^4 colony forming units of each isolate contained in a volume of 1 μl. Plates are incubated 18 to 24 hr in air, or for fastidious bacteria an atmosphere enriched with 4-6% carbon dioxide at 35° C. The MIC is determined as the lowest concentration of an Antimicrobial tested that inhibited growth of the inoculum, disregarding a single persisting colony or faint haze caused by the inoculation.

Chain of E coli PDF (Ni) (P0A6K3 whole entry): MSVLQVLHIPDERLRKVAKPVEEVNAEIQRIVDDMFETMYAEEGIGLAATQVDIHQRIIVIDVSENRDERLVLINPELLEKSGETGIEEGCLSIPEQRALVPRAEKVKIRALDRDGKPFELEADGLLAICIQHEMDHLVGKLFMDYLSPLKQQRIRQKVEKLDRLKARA

Row | SMILES | IC50 (E coli PDF (Ni)) [nM] | MIC (Haemophilia influenza) [µg/mL]
1 | CCCC[C@H](CN(O)C=O)NC(=O)c1cn(C2CCCCC2)c2ccccc2c1=O [Example 3, 1-Cyclohexyl-4-oxo-1,4-dihydro-quinoline-3-carboxylic acid {1R[(formyl-hydroxy-amino)-methyl]-pentyl}-amide] | 60 | 
2 | CCCC[C@H](CN(O)C=O)NC(=O)c1cn(CC)c2cc3c(cc2c1=O)OCO3 [Example 2, 5-Ethyl-8-oxo-5,8-dihydro-[1,3]dioxolo[4,5]quinoline-7-carboxylic acid {1R-[(formyl-hydroxy-amino)-methyl]-pentyl}amide] | 30 | 
3 | CCCC[C@H](CN(O)C=O)NC(=O)Cc1cccc2ccccc12 [Example 1, N-{1R-[(Formyl-hydroxy-amino)-methyl]-pentyl}2-naphthalen-1-yl-acetamide] |  | 0.5 to 2 (≈ 1.52 to 6.09 µM)
4 | CCCC[C@H](CN(O)C=O)NC(=O)c1coc2ccccc2c1=O [Example 5, 4-Oxo-4H-chromene-3-carboxylic acid {1R-[(formyl-hydroxy-amino)-methyl]-pentyl}amide] | 200 | 
5 | CCCC[C@H](CN(O)C=O)NC(=O)c1cn(CC)c2ccc(Cl)cc2c1=O [Example 4, 6-Chloro-1-ethyl-4-oxo-1,4-dihydro-quinoline-3-carboxylic acid {1R[(formyl-hydroxy-amino)-methyl]-pentyl}-amide] | 20 | 
